Assay results as given in patent US20260013501A1, “HERBICIDAL DERIVATIVES” (SYNGENTA CROP PROTECTION AG, priority 2022, published 2026).

What was measured:
Type in all cases: in vivo
Conditions in all cases: evaluated after 13 days
Zea mays (ZEAMX) [1] = experiment: Post-emergence Test (Table B2), ZEAMX; design: key: 5-point damage scale: 5=81-100%, 4=61-80%, 3=41-60%, 2=21-40%, 1=0-20%
Method: Seeds of a variety of test species are sown in standard soil in pots (Ipomoea hederacea (IPOHE), Zea mays (ZEAMX), Echinochloa crus-galli (ECHCG), Amaranthus palmeri (AMAPA), (Amaranthus retoflexus (AMARE), and (Setaria faberi (SETFA)). After 8 days cultivation under controlled conditions in a glasshouse (at 24° C./16° C., day/night; 14 hours light; 65% humidity), the plants are sprayed with an aqueous spray solution derived from the formulation of the technical active ingredient in acetone/water (50:50) solution containing 0.5% Tween 20 (polyoxyethelyene sorbitan monolaurate, CAS RN 9005-64-5). Rate of application is shown in g/ha in the tables below. The test plants are then grown in a glasshouse under controlled conditions in a glasshouse (at 24° C./16° C., day/night; 14 hours light; 65% humidity) and watered twice daily. After 13 days the test is evaluated for the percentage damage caused to the plant. The biological activities are shown in the following table on a five-point scale (5=81-100%; 4=61-80%; 3=41-60%; 2=21-40%; 1=0-20%; -=not tested).

[2] = tested on: Amaranthus palmeri (AMAPA); experiment: Pre-emergence Test (Table B1), AMAPA
[3] = tested on: Amaranthus retoflexus (AMARE); experiment: Pre-emergence Test (Table B1), AMARE
Zea mays (ZEAMX) [4] = experiment: Pre-emergence Test (Table B1), ZEAMX

Q: With CCn1c(Cc2cccc(Cl)c2)cc(=O)c(C(=O)O)c1-c1ccc(Cl)c(Cl)c1 [Compound 1, 6-[(3-chlorophenyl)methyl]-2-(3,4-dichlorophenyl)-1-ethyl-4-oxo-pyridine-3-carboxylic acid] as the compound, how does the “percentage damage caused to the plant, ZEAMX” value (Zea mays (ZEAMX) [1]; rate 1000 g/Ha) read?
A: 0

Q: Which “Pre-emergence Test, percentage damage caused to the plant (five-point scale), AMAPA” value ([2]; Rate 1000 g/Ha) does the source give for CCn1c(Cc2ncc(Cl)cn2)cc(=O)c(C(=O)O)c1-c1ccc(Cl)c(Cl)c1 [Compound 4, 6-[(5-chloropyrimidin-2-yl)methyl]-2-(3,4-dichlorophenyl)-1-ethyl-4-oxo-pyridine-3-carboxylic acid] here?
A: 0

Q: With CCn1c(Cc2ccc(F)cc2)cc(=O)c(C(=O)O)c1-c1ccc(Cl)c(Cl)c1 [Compound 12, 2-(3,4-dichlorophenyl)-1-ethyl-6-[(4-fluorophenyl)methyl]-4-oxo-pyridine-3-carboxylic acid] as the compound, how does the “Pre-emergence Test, percentage damage caused to the plant (five-point scale), AMARE” value ([3]; Rate 1000 g/Ha) read?
A: 0

Q: And the “percentage damage caused to the plant, ZEAMX” value (Zea mays (ZEAMX) [1]; rate 1000 g/Ha)?
A: 0

Q: How did the “Pre-emergence Test, percentage damage caused to the plant (five-point scale), AMARE” value ([3]; Rate 1000 g/Ha) turn out when CCn1c(Cc2nccs2)cc(=O)c(C(=O)O)c1-c1ccc(Cl)c(Cl)c1 [Compound 19, 2-(3,4-dichlorophenyl)-1-ethyl-4-oxo-6-(thiazol-2-ylmethyl)pyridine-3-carboxylic acid] was run?
A: 0

Q: And the “Pre-emergence Test, percentage damage caused to the plant (five-point scale), AMAPA” value ([2]; Rate 1000 g/Ha)?
A: 0

Q: CCn1c(Cc2cc(F)cc(F)c2)cc(=O)c(C(=O)O)c1-c1ccc(Cl)c(Cl)c1 [Compound 29, 2-(3,4-dichlorophenyl)-6-[(3,5-difluorophenyl)methyl]-1-ethyl-4-oxo-pyridine-3-carboxylic acid] was tested. Which “Pre-emergence Test, percentage damage caused to the plant (five-point scale), ZEAMX” value (Zea mays (ZEAMX) [4]; Rate 1000 g/Ha) did it give?
A: 0

Q: What about the “Pre-emergence Test, percentage damage caused to the plant (five-point scale), AMARE” value ([3]; Rate 1000 g/Ha) of the same compound?
A: 0

Q: And the “Pre-emergence Test, percentage damage caused to the plant (five-point scale), AMAPA” value ([2]; Rate 1000 g/Ha)?
A: 0

Q: What about the “percentage damage caused to the plant, ZEAMX” value (Zea mays (ZEAMX) [1]; rate 1000 g/Ha) of the same compound?
A: 0

Q: With CCn1c(Cc2cccc(OC(F)(F)F)c2)cc(=O)c(C(=O)O)c1-c1ccc(Cl)c(Cl)c1 [Compound 30, 2-(3,4-dichlorophenyl)-1-ethyl-4-oxo-6-[[3-(trifluoromethoxy)phenyl]methyl]pyridine-3-carboxylic acid] as the compound, how does the “percentage damage caused to the plant, ZEAMX” value (Zea mays (ZEAMX) [1]; rate 1000 g/Ha) read?
A: 0

Q: CCn1c(Cc2cccc(C(F)(F)F)n2)cc(=O)c(C(=O)O)c1-c1ccc(Cl)c(Cl)c1 [Compound 39, 2-(3,4-dichlorophenyl)-1-ethyl-4-oxo-6-[[6-(trifluoromethyl)-2-pyridyl]methyl]pyridine-3-carboxylic acid] was tested. Which “Pre-emergence Test, percentage damage caused to the plant (five-point scale), AMAPA” value ([2]; Rate 1000 g/Ha) did it give?
A: 0

Q: How did the “Pre-emergence Test, percentage damage caused to the plant (five-point scale), ZEAMX” value (Zea mays (ZEAMX) [4]; Rate 250 g/Ha) turn out when CCn1c(Cc2ccnc(F)c2)cc(=O)c(C(=O)O)c1-c1ccc(Cl)c(Cl)c1 [Compound 44, 2-(3,4-dichlorophenyl)-1-ethyl-6-[(2-fluoro-4-pyridyl)methyl]-4-oxo-pyridine-3-carboxylic acid] was run?
A: 0

Q: Which results are given for CCn1c(Cc2ccn(C3CC3)n2)cc(=O)c(C(=O)O)c1-c1ccc(Cl)c(Cl)c1 [Compound 54, 6-[(1-cyclopropylpyrazol-3-yl)methyl]-2-(3,4-dichlorophenyl)-1-ethyl-4-oxo-pyridine-3-carboxylic acid]?
A: Pre-emergence Test, percentage damage caused to the plant (five-point scale), AMARE ([3]; Rate 1000 g/Ha): 0; Pre-emergence Test, percentage damage caused to the plant (five-point scale), AMAPA ([2]; Rate 1000 g/Ha): 0

Q: Which “percentage damage caused to the plant, ZEAMX” value (Zea mays (ZEAMX) [1]; rate 1000 g/Ha) does the source give for CCn1c(Cc2cccc(C#N)n2)cc(=O)c(C(=O)O)c1-c1ccc(Cl)c(Cl)c1 [Compound 57, 6-[(6-cyano-2-pyridyl)methyl]-2-(3,4-dichlorophenyl)-1-ethyl-4-oxo-pyridine-3-carboxylic acid] here?
A: 0

Q: For CCn1c(Cc2ccc(OC)cc2C(F)(F)F)cc(=O)c(C(=O)O)c1-c1ccc(Cl)c(Cl)c1 [Compound 65, 2-(3,4-dichlorophenyl)-1-ethyl-6-[[4-methoxy-2-(trifluoromethyl)phenyl]methyl]-4-oxo-pyridine-3-carboxylic acid], which “Pre-emergence Test, percentage damage caused to the plant (five-point scale), ZEAMX” value (Zea mays (ZEAMX) [4]; Rate 1000 g/Ha) is on record?
A: 0

Q: For CCn1c(Cc2ccc(F)c(OC)c2)cc(=O)c(C(=O)O)c1-c1ccc(Cl)c(Cl)c1 [Compound 95, 2-(3,4-dichlorophenyl)-1-ethyl-6-[(4-fluoro-3-methoxy-phenyl)methyl]-4-oxo-pyridine-3-carboxylic acid], which “Pre-emergence Test, percentage damage caused to the plant (five-point scale), ZEAMX” value (Zea mays (ZEAMX) [4]; Rate 1000 g/Ha) is on record?
A: 0

Q: What about the “Pre-emergence Test, percentage damage caused to the plant (five-point scale), AMARE” value ([3]; Rate 1000 g/Ha) of the same compound?
A: 0

Q: What about the “Pre-emergence Test, percentage damage caused to the plant (five-point scale), AMAPA” value ([2]; Rate 1000 g/Ha) of the same compound?
A: 0

Q: Which results are given for CCn1c(Cc2ccc(C)c(Cl)n2)cc(=O)c(C(=O)O)c1-c1ccc(Cl)c(Cl)c1 [Compound 97, 6-[(6-chloro-5-methyl-2-pyridiyl)methyl]-2-(3,4-dichlorophenyl)-1-ethyl-4-oxo-pyridine-3-carboxylic acid]?
A: Pre-emergence Test, percentage damage caused to the plant (five-point scale), AMARE ([3]; Rate 1000 g/Ha): 0; Pre-emergence Test, percentage damage caused to the plant (five-point scale), AMAPA ([2]; Rate 1000 g/Ha): 0

Q: With CCn1c(Cc2nc(Cl)ccc2COC)cc(=O)c(C(=O)O)c1-c1ccc(Cl)c(Cl)c1 [Compound 105, 6-[[6-chloro-3-(methoxymethyl)-2-pyridyl]methyl]-2-(3,4-dichlorophenyl)-1-ethyl-4-oxo-pyridine-3-carboxylic acid] as the compound, how does the “Pre-emergence Test, percentage damage caused to the plant (five-point scale), AMARE” value ([3]; Rate 250 g/Ha) read?
A: 0

Q: And the “Pre-emergence Test, percentage damage caused to the plant (five-point scale), AMAPA” value ([2]; Rate 250 g/Ha)?
A: 0

Q: For CCn1c(Cc2ccc(C(F)F)nn2)cc(=O)c(C(=O)O)c1-c1ccc(Cl)c(Cl)c1 [Compound 108, 2-(3,4-dichlorophenyl)-6-[[6-(difluoromethyl)-pyridazin-3-yl]methyl]-1-ethyl-4-oxo-pyridine-3-carboxylic acid], which “Pre-emergence Test, percentage damage caused to the plant (five-point scale), ZEAMX” value (Zea mays (ZEAMX) [4]; Rate 1000 g/Ha) is on record?
A: 0

Q: And the “Pre-emergence Test, percentage damage caused to the plant (five-point scale), AMARE” value ([3]; Rate 1000 g/Ha)?
A: 0

Q: And the “Pre-emergence Test, percentage damage caused to the plant (five-point scale), AMAPA” value ([2]; Rate 1000 g/Ha)?
A: 0

Q: How did the “Pre-emergence Test, percentage damage caused to the plant (five-point scale), ZEAMX” value (Zea mays (ZEAMX) [4]; Rate 250 g/Ha) turn out when CCn1c(Cc2cc(C(F)F)ccn2)cc(=O)c(C(=O)O)c1-c1ccc(Cl)c(Cl)c1 [Compound 115, 2-(3,4-dichlorophenyl)-6-[[4-(difluoromethyl)-2-pyridyl]methyl]-1-ethyl-4-oxo-pyridine-3-carboxylic acid] was run?
A: 0

Q: With CCn1c(Cc2cc(Cl)ccn2)cc(=O)c(C(=O)O)c1-c1ccc(Cl)c(Cl)c1 [Compound 117, 6-[(4-chloro-2-pyridyl)methyl]-2-(3,4-dichlorophenyl)-1-ethyl-4-oxo-pyridine-3-carboxylic acid] as the compound, how does the “Pre-emergence Test, percentage damage caused to the plant (five-point scale), ZEAMX” value (Zea mays (ZEAMX) [4]; Rate 62.5 g/Ha) read?
A: 0

Q: And the “percentage damage caused to the plant, ZEAMX” value (Zea mays (ZEAMX) [1]; rate 62.5 g/Ha)?
A: 0

Q: How did the “Pre-emergence Test, percentage damage caused to the plant (five-point scale), ZEAMX” value (Zea mays (ZEAMX) [4]; Rate 250 g/Ha) turn out when CCn1c(Cc2ccn(CC(C)C)n2)cc(=O)c(C(=O)O)c1-c1ccc(Cl)c(Cl)c1 [Compound 121, 2-(3,4-dichlorophenyl)-1-ethyl-6-[(1-isobutylpyrazol-3-yl)methyl]-4-oxo-pyridine-3-carboxylic acid] was run?
A: 0

Q: With CCn1c(Cc2ccn(C(F)F)n2)cc(=O)c(C(=O)O)c1-c1ccc(Cl)c(Cl)c1 [Compound 124, 2-(3,4-dichlorophenyl)-6-[[1-(difluoromethyl)pyrazol-3-yl]methyl]-1-ethyl-4-oxo-pyridine-3-carboxylic acid] as the compound, how does the “Pre-emergence Test, percentage damage caused to the plant (five-point scale), ZEAMX” value (Zea mays (ZEAMX) [4]; Rate 62.5 g/Ha) read?
A: 0

Q: And the “Pre-emergence Test, percentage damage caused to the plant (five-point scale), AMARE” value ([3]; Rate 62.5 g/Ha)?
A: 0

Q: What about the “Pre-emergence Test, percentage damage caused to the plant (five-point scale), AMAPA” value ([2]; Rate 62.5 g/Ha) of the same compound?
A: 0

Q: For CCn1c(Cc2ccc(Cl)nc2)cc(=O)c(C(=O)O)c1-c1ccc(Cl)c(Cl)c1 [Compound 129, 6-[(6-chloro-3-pyridyl)methyl]-2-(3,4-dichlorophenyl)-1-ethyl-4-oxo-pyridine-3-carboxylic acid], which “Pre-emergence Test, percentage damage caused to the plant (five-point scale), AMAPA” value ([2]; Rate 250 g/Ha) is on record?
A: 0

Q: And the “percentage damage caused to the plant, ZEAMX” value (Zea mays (ZEAMX) [1]; rate 250 g/Ha)?
A: 0

Q: CCn1c(Cc2ccc(OC)nn2)cc(=O)c(C(=O)O)c1-c1ccc(Cl)c(Cl)c1 [Compound 133, 2-(3,4-dichlorophenyl)-1-ethyl-6-[(6-methoxypyridazin-3-yl)methyl]-4-oxo-pyridine-3-carboxylic acid] was tested. Which “Pre-emergence Test, percentage damage caused to the plant (five-point scale), ZEAMX” value (Zea mays (ZEAMX) [4]; Rate 250 g/Ha) did it give?
A: 0

Q: How did the “Pre-emergence Test, percentage damage caused to the plant (five-point scale), ZEAMX” value (Zea mays (ZEAMX) [4]; Rate 250 g/Ha) turn out when CCn1c(Cc2cccc(Br)n2)cc(=O)c(C(=O)O)c1-c1ccc(Cl)c(Cl)c1 [Compound 138, 6-[(6-bromo-2-pyridyl)methyl]-2-(3,4-dichlorophenyl)-1-ethyl-4-oxo-pyridine-3-carboylic acid] was run?
A: 0

Q: With CCn1c(Cc2ccnc(C(F)(F)F)n2)cc(=O)c(C(=O)O)c1-c1ccc(Cl)c(Cl)c1 [Compound 141, 2-(3,4-dichlorophenyl)-1-ethyl-4-oxo-6-[[2-(trifluoromethyl)pyrimidin-4-yl]methyl]pyridine-3-carboxylic acid] as the compound, how does the “Pre-emergence Test, percentage damage caused to the plant (five-point scale), ZEAMX” value (Zea mays (ZEAMX) [4]; Rate 250 g/Ha) read?
A: 0

Q: What about the “Pre-emergence Test, percentage damage caused to the plant (five-point scale), AMAPA” value ([2]; Rate 250 g/Ha) of the same compound?
A: 0

Q: CCn1c(Cc2cccc(C(C)F)n2)cc(=O)c(C(=O)O)c1-c1ccc(Cl)c(Cl)c1 (stereo not shown) [Compound 147, 2-(3,4-dichlorophenyl)-1-ethyl-6-[[6-(1-fluoroethyl)-2-pyridyl]methyl]-4-oxo-pyridine-3-carboxylic acid] was tested. Which “Pre-emergence Test, percentage damage caused to the plant (five-point scale), AMAPA” value ([2]; Rate 250 g/Ha) did it give?
A: 0

Q: What does the source list for CCn1c(Cc2ccon2)cc(=O)c(C(=O)O)c1-c1ccc(Cl)c(Cl)c1 [Compound 149, 2-(3,4-dichlorophenyl)-1-ethyl-6-(isoxazol-3-ylmethyl)-4-oxo-pyridine-3-carboxylic acid]?
A: Pre-emergence Test, percentage damage caused to the plant (five-point scale), ZEAMX (Zea mays (ZEAMX) [4]; Rate 250 g/Ha): 0; percentage damage caused to the plant, ZEAMX (Zea mays (ZEAMX) [1]; rate 250 g/Ha): 0
